Reference: patent US20240417410A1, “TRICYCLIC COMPOUNDS FOR THE TREATMENT OF CANCER” (Hoffmann-La Roche Inc., priority 2023, published 2024)

Key:
[1] = tested on: phosphorylation of ERK, KRAS G12V in SW620; assay: pERK inhibition assay; format: cell-based; conditions: Homo sapiens, SW-620, 4 h, SW620 cells
Procedure, shortened: (§1)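 NCI-H358 (KRAS G12C), AGS (G12D) and SW620 (G12V) cells plated overnight, then treated with compound for 4 h in 0.5% DMSO. After fixing and methanol permeabilisation, phospho-ERK was detected by in-cell ELISA (HRP/TMB, OD450). IC50 from a 4-parameter sigmoidal fit.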

[2] = tested on: phosphorylation of ERK, KRAS G12D in AGS cells; assay: pERK inhibition assay; format: cell-based; conditions: Homo sapiens, AGS, 4 h
Procedure, shortened: as §1

[3] = tested on: phosphorylation of ERK, KRAS G12C in NCI-H358 cells; assay: pERK inhibition assay; format: cell-based; conditions: Homo sapiens, NCI-H358, 4 h
Procedure, shortened: as §1

KRAS G12C-BRAF complex = KRAS G12C-BRAF complex (Homo sapiens (Human), UniProt P01116+P62937, G12C); assay: KRAS-BRAF with CYPA (500 nM) interaction assay (TR-FRET, Example 136); format: biochemical; conditions: KRAS G12C-BRAF disruption
[4] = tested on: NCI-H358 cells (KRAS G12C); assay: Cell viability assay (Cell Counting Kit-8, 3-day); format: cell-based, human; conditions: Homo sapiens, NCI-H358, 72 h, NCI-H358, 72 hrs incubation
Procedure, shortened: (§2)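 Read-out is CCK-8 absorbance (OD450 minus OD650, 2 hrs after reagent), reflecting NADPH after 72 hrs of compound exposure in 0.5% DMSO. Seeding density was 5,000 cells/well for NCI-H358 and 2,000 for AGS and SW620. IC50 derived by 4-parameter sigmoidal fitting.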

SW620 cells (KRAS G12V) = assay: Cell viability assay (Cell Counting Kit-8, 3-day); format: cell-based, human; conditions: Homo sapiens, SW-620; SW620, 72 hrs incubation
Procedure, shortened: as §2

AGS cells (KRAS G12D) = assay: Cell viability assay (Cell Counting Kit-8, 3-day); format: cell-based, human; conditions: Homo sapiens, 72 h, 72 hrs incubation
Procedure, shortened: as §2

Sequence of KRAS G12C-BRAF complex (P01116-2 other isoform, or with tags, fused parts or gaps G12C): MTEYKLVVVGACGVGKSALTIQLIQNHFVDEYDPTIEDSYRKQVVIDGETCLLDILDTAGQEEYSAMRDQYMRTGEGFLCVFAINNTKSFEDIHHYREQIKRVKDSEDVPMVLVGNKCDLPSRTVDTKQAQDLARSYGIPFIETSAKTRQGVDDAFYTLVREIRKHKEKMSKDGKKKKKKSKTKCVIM
Sequence of KRAS G12C-BRAF complex (P62937 whole entry): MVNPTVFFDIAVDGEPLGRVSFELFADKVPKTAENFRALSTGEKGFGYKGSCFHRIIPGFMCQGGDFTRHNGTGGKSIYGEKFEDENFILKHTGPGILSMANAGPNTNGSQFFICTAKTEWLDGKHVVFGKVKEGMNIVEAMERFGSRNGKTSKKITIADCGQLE

With `CO[C@@H](C)c1ncc(N2CCN3CCOC[C@@H]3C2)cc1-c1c2c3cc(cc4c3n1CCC4)-c1csc(n1)C[C@H](NC(=O)[C@H]1C[C@@H]1C)C(=O)N1CCC[C@H](N1)C(=O)OCC(C)(C)C2` (atropisomer, axis not shown; (M)) [Example 25, (1S,2S)-N-[(7S,13S)-(20M)-20-[5-[(9αS)-3,4,6,7,9,9a-hexahydro-1H-pyrazino[2,1-c][1,4]oxazin-8-yl]-2-[(1S)-1-methoxyethyl]-3-pyridyl]-17,17-dimethyl-8,14-dioxo-15-oxa-4-thia-9,21,30,31-tetrazahexacyclo[23.3.1.1^2,5.1^9,13.0^19,27.0^21,26]hentriaconta-1 (28),2,5 (31),19,25 (29),26-hexaen-7-yl]-2-methyl-cyclopropanecarboxamide] the IC50 [1] was 0.8 nM, the IC50 [2] was 11.3 nM and the IC50 [3] was 1 nM. It also gave an IC50 (KRAS G12C-BRAF complex) of 32.6 nM, an IC50 [4] of 6.7 nM and an IC50 (SW620 cells (KRAS G12V)) of 1.8 nM. The IC50 (AGS cells (KRAS G12D)) was 32.6 nM.

`CO[C@@H](C)c1ncc(N2CCN(CCC(C)(C)OC)CC2)cc1-c1c2c3cc(cc4c3n1CCC4)-c1csc(n1)C[C@H](NC(=O)[C@H]1[C@H](C)[C@@H]1C)C(=O)N1CCC[C@H](N1)C(=O)OCC(C)(C)C2` (atropisomer, axis not shown; (M)) [Example 123, (1r,2R,3S)-N-[(7S,13S)-(20M)-20-[2-[(1S)-1-methoxyethyl]-5-[4-(3-methoxy-3-methyl-butyl)piperazin-1-yl]-3-pyridyl]-17,17-dimethyl-8,14-dioxo-15-oxa-4-thia-9,21,30,31-tetrazahexacyclo[23.3.1.1^2,5.1^9,13.0^19,27.0^21,26]hentriaconta-1 (28),2,5 (31), 19,25 (29),26-hexaen-7-yl]-2,3-dimethyl-cyclopropanecarboxamide] was tested, and the IC50 [1] was 0.6 nM, the IC50 [2] was 7.1 nM and the IC50 [3] was 0.8 nM. The IC50 (KRAS G12C-BRAF complex) was 13.7 nM, the IC50 [4] was 3 nM and the IC50 (SW620 cells (KRAS G12V)) was 0.6 nM. It also gave an IC50 (AGS cells (KRAS G12D)) of 5.1 nM.

Work on `CO[C@@H](C)c1ncc(N2CCN(C)CC2)cc1-c1c2c3cc(cc4c3n1CC(F)(F)C4)-c1csc(n1)C[C@H](NC(=O)[C@H]1[C@@H]3COC[C@@H]31)C(=O)N1CCC[C@H](N1)C(=O)OCC(C)(C)C2` (atropisomer, axis not shown; (M)) [Example 60] yielded an IC50 [1] of 0.9 nM, an IC50 [2] of 8.2 nM and an IC50 [3] of 2.3 nM. The IC50 (KRAS G12C-BRAF complex) was 15.2 nM, the IC50 [4] was 8.2 nM and the IC50 (SW620 cells (KRAS G12V)) was 1.7 nM. For the same molecule, the IC50 (AGS cells (KRAS G12D)) was 32 nM.

In the case of `CO[C@@H](C)c1ncc(N2CCN(C)CC2)cc1-c1c2c3cc(c(F)c4c3n1CCC4)-c1csc(n1)C[C@H](NC(=O)[C@H]1[C@H](C)[C@@H]1C)C(=O)N1CCC[C@H](N1)C(=O)OCC(C)(C)C2` (atropisomer, axis not shown; (M)) [Example 124, (1r,2S,3R)-N-[(7S,13S)-29-fluoro-(20M)-20-[2-[(1S)-1-methoxyethyl]-5-(4-methylpiperazin-1-yl)-3-pyridyl]-17,17-dimethyl-8,14-dioxo-15-oxa-4-thia-9,21,30,31-tetrazahexacyclo[23.3.1.1^2,5.1^9,13.0^19,27.0^21,26]hentriaconta-1 (28),2,5 (31), 19,25 (29),26-hexaen-7-yl]-2,3-dimethyl-cyclopropanecarboxamide], the IC50 [1] is reported as 0.7 nM, the IC50 [2] is reported as 15.7 nM and the IC50 [3] is reported as 1.4 nM. For the same molecule, the IC50 (KRAS G12C-BRAF complex) was 16.2 nM, the IC50 [4] was 8.9 nM and the IC50 (SW620 cells (KRAS G12V)) was 1.6 nM. For the same molecule, the IC50 (AGS cells (KRAS G12D)) was 13.8 nM.

`CO[C@@H](C)c1ncc(N2CCN(CC(F)(F)F)CC2)cc1-c1c2c3cc(cc4c3n1CCO4)-c1csc(n1)C[C@H](NC(=O)[C@H]1[C@@H]3COC[C@@H]31)C(=O)N1CCC[C@H](N1)C(=O)OCC(C)(C)C2` (atropisomer, axis not shown; (M)) [Example 12, (1S,5R,6r)-N-[(7S,13S)-(20M)-20-[2-[(1S)-1-methoxyethyl]-5-[4-(2,2,2-trifluoroethyl)piperazin-1-yl]-3-pyridyl]-17,17-dimethyl-8,14-dioxo-15,24-dioxa-4-thia-9,21,30,31-tetrazahexacyclo[23.3.1.1^2,5.1^9,13.0^19,27.0^21,26]hentriaconta-1 (28),2,5 (31),19,25 (29),26-hexaen-7-yl]-3-oxabicyclo[3.1.0]hexane-6-carboxamide] gave an IC50 [1] of 1.2 nM, an IC50 [2] of 2.2 nM and an IC50 [3] of 3.8 nM. It also gave an IC50 (KRAS G12C-BRAF complex) of 12 nM, an IC50 [4] of 12.5 nM and an IC50 (SW620 cells (KRAS G12V)) of 2 nM. It also gave an IC50 (AGS cells (KRAS G12D)) of 25 nM.

`CO[C@@H](C)c1ncc(N2CCN(CCF)CC2)cc1-c1c2c3cc(cc4c3n1CCC4)-c1csc(n1)C[C@H](NC(=O)[C@H]1[C@H](C)[C@@H]1C)C(=O)N1CCC[C@H](N1)C(=O)OCC(C)(C)C2` (atropisomer, axis not shown; (M)) [Example 110, (1r,2R,3S)-N-[(7S,13S)-(20M)-20-[5-[4-(2-fluoroethyl)piperazin-1-yl]-2-[(1S)-1-methoxyethyl]-3-pyridyl]-17,17-dimethyl-8,14-dioxo-15-oxa-4-thia-9,21,30,31-tetrazahexacyclo[23.3.1.1^2,5.1^9,13.0^19,27.0^21,26]hentriaconta-1 (28),2,5 (31), 19,25 (29),26-hexaen-7-yl]-2,3-dimethyl-cyclopropanecarboxamide] showed an IC50 [1] of 0.3 nM, an IC50 [2] of 2.6 nM and an IC50 [3] of 0.7 nM. It also gave an IC50 (KRAS G12C-BRAF complex) of 4.9 nM, an IC50 [4] of 1.8 nM and an IC50 (SW620 cells (KRAS G12V)) of 0.4 nM. The IC50 (AGS cells (KRAS G12D)) was 2.6 nM.

Molecule `CO[C@@H](C)c1ncc(N2CCNCC2)cc1-c1c2c3cc(cc4c3n1CCC4)-c1csc(n1)C[C@H](NC(=O)[C@H]1[C@H](C)[C@@H]1C)C(=O)N1CCC[C@H](N1)C(=O)OCC(C)(C)C2` (atropisomer, axis not shown; (M)) [Example 108, (1r,2R,3S)-N-[(7S,13S)-(20M)-20-[2-[(1S)-1-methoxyethyl]-5-piperazin-1-yl-3-pyridyl]-17,17-dimethyl-8,14-dioxo-15-oxa-4-thia-9,21,30,31-tetrazahexacyclo[23.3.1.1^2,5.1^9,13.0^19,27.0^21,26]hentriaconta-1 (28),2,5 (31), 19,25 (29),26-hexaen-7-yl]-2,3-dimethyl-cyclopropanecarboxamide] has an IC50 [1] of 0.5 nM, an IC50 [2] of 3.9 nM and an IC50 [3] of 1.8 nM. The IC50 (KRAS G12C-BRAF complex) was 4.6 nM, the IC50 [4] was 2.2 nM and the IC50 (SW620 cells (KRAS G12V)) was 0.5 nM. For the same molecule, the IC50 (AGS cells (KRAS G12D)) was 1.8 nM.

For `CO[C@@H](C)c1ncc(N2CCN(C)CC2)cc1-c1c2c3cc(cc4c3n1CCC4)-c1csc(n1)C[C@H](NC(=O)[C@H]1C[C@@H]1c1cncnc1)C(=O)N1CCC[C@H](N1)C(=O)OCC(C)(C)C2` (atropisomer, axis not shown; (M)) [Example 47, (1S,2S)-N-[(7S,13S)-(20M)-20-[2-[(1S)-1-methoxyethyl]-5-(4-methylpiperazin-1-yl)-3-pyridyl]-17,17-dimethyl-8,14-dioxo-15-oxa-4-thia-9,21,30,31-tetrazahexacyclo[23.3.1.1^2,5.1^9,13.0^19,27.0^21,26]hentriaconta-1 (28),2,5 (31), 19,25 (29),26-hexaen-7-yl]-2-pyrimidin-5-yl-cyclopropanecarboxamide], the IC50 [1] was 1.4 nM, the IC50 [2] was 4.8 nM and the IC50 [3] was 1.2 nM. For the same molecule, the IC50 (KRAS G12C-BRAF complex) was 21.2 nM, the IC50 [4] was 2.5 nM and the IC50 (SW620 cells (KRAS G12V)) was 0.9 nM. For the same molecule, the IC50 (AGS cells (KRAS G12D)) was 10.2 nM.

`CO[C@@H](C)c1ncc(N2CCOCC2)cc1-c1c2c3cc(cc4c3n1CCC4)-c1csc(n1)C[C@H](NC(=O)[C@H]1C[C@@H]1c1cccnc1)C(=O)N1CCC[C@H](N1)C(=O)OCC(C)(C)C2` (atropisomer, axis not shown; (M)) [Example 89, (1S,2S)-N-[(7S,13S)-(20M)-20-[2-[(1S)-1-methoxyethyl]-5-morpholino-3-pyridyl]-17,17-dimethyl-8,14-dioxo-15-oxa-4-thia-9,21,30,31-tetrazahexacyclo[23.3.1.1^2,5.1^9,13.0^19,27.0^21,26]hentriaconta-1 (28),2,5 (31), 19,25 (29),26-hexaen-7-yl]-2-(3-pyridyl)cyclopropanecarboxamide] showed an IC50 [1] of 0.4 nM, an IC50 [2] of 4.8 nM and an IC50 [3] of 0.6 nM. The IC50 (KRAS G12C-BRAF complex) was 6 nM, the IC50 [4] was 1.5 nM and the IC50 (SW620 cells (KRAS G12V)) was 0.3 nM. It also gave an IC50 (AGS cells (KRAS G12D)) of 6 nM.

With `CO[C@@H](C)c1ncc(N2CCN(C)CC2)cc1-c1c2c3cc(cc4c3n1CCCO4)-c1csc(n1)C[C@H](NC(=O)[C@H]1[C@H](C)[C@@H]1C)C(=O)N1CCC[C@H](N1)C(=O)OCC(C)(C)C2` (atropisomer, axis not shown; (M)) [Example 100, (1r,2R,3S)-N-[(7S,13S)-(20M)-20-[2-[(1S)-1-methoxyethyl]-5-(4-methylpiperazin-1-yl)-3-pyridyl]-17,17-dimethyl-8,14-dioxo-15,25-dioxa-4-thia-9,21,31,32-tetrazahexacyclo[24.3.1.1^2,5.1^9,13.0^19,28.0^21,27]dotriaconta-1 (29),2,5 (32),19,26 (30),27-hexaen-7-yl]-2,3-dimethyl-cyclopropanecarboxamide] the IC50 [1] was 0.7 nM, the IC50 [2] was 4.1 nM and the IC50 [3] was 1 nM. For the same molecule, the IC50 (KRAS G12C-BRAF complex) was 33.1 nM, the IC50 [4] was 2.7 nM and the IC50 (SW620 cells (KRAS G12V)) was 0.7 nM. It also gave an IC50 (AGS cells (KRAS G12D)) of 8.2 nM.
